pIC50, pKi: −log10 of the molar value.
Experiments:
Calcitonin receptor = target: T1, Calcitonin receptor (Homo sapiens, UniProt P30988); assay type: cell membranes, Membrane; details: t47d; note: in other assays of this panel Not Active means under 50% inhibition at 10 µM
T1 sequence (P30988 whole entry): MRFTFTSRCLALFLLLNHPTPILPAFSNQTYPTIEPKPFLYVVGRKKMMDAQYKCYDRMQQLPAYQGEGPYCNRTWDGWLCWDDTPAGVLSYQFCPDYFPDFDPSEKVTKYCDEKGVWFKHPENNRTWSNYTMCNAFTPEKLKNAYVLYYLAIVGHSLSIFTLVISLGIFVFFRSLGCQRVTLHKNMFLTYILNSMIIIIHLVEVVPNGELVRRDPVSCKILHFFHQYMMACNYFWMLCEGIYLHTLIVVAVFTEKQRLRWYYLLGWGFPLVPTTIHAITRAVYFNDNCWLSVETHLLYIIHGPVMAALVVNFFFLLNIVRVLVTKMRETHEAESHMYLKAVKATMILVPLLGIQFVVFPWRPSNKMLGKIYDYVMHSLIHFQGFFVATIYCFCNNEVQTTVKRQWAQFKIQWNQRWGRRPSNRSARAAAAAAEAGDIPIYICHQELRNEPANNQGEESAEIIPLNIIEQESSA

Substance-P receptor = Substance-P receptor (Homo sapiens, UniProt P25103); assay type: cell membranes, CHO, Membrane; details: cho; note: in other assays of this panel Not Active means under 50% inhibition at 10 µM
[1] = DRUGMATRIX: Glutamate, AMPA radioligand binding (ligand: [3H] AMPA); assay type: cell membranes, Rattus norvegicus, Wistar, Cerebral cortex, Membrane; details: Not Active = under 50% inhibition at 10 µM
[2] = DRUGMATRIX: Phorbol Ester radioligand binding (ligand: [3H] PDBu); assay type: cell membranes, Mus musculus, ICR, Brain, Membrane; details: Not Active = under 50% inhibition at 10 µM
[3] = target: T2, Receptor-type tyrosine-protein phosphatase C (Homo sapiens, UniProt P08575); design: species or system Escherichia coli;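 note: inhibition of CD45 enzyme activity measured using DiFMUP as substrate; in other assays of this panel Not Active means under 50% inhibition at 10 µM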
T2 sequence (P08575 whole entry): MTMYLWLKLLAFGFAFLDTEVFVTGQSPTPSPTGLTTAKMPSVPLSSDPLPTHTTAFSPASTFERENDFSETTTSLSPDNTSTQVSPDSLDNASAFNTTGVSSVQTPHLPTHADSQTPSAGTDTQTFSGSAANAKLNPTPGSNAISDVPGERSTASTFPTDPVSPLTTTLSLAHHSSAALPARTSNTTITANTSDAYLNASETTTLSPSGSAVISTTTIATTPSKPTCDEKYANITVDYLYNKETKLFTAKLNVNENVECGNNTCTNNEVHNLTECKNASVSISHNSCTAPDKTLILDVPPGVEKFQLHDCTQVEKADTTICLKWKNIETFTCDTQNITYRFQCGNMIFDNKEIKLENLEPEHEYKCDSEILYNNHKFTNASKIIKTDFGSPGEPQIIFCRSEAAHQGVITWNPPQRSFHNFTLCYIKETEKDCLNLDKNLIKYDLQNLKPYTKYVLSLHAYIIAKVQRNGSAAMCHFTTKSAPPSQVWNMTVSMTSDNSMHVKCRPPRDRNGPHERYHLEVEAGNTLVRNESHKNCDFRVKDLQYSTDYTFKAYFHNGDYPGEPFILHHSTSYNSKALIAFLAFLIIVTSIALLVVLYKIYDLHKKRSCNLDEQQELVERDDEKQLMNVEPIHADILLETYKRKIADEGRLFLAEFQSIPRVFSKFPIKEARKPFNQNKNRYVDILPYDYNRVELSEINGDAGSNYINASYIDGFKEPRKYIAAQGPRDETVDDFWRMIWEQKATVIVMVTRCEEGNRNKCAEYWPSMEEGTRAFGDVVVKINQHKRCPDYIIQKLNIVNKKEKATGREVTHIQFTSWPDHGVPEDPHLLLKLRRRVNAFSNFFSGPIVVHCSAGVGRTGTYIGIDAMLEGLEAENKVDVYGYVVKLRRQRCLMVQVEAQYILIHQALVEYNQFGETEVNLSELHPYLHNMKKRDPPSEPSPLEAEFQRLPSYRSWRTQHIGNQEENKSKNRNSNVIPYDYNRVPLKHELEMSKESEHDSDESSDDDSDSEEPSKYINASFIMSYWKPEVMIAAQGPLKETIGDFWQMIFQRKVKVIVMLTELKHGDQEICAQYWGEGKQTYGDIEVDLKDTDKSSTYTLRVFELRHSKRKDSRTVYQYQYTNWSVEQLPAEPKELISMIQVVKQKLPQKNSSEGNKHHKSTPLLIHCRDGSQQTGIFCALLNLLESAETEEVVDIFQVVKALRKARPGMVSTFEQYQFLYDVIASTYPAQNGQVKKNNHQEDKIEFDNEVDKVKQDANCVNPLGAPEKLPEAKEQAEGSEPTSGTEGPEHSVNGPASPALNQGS

[4] = target: T3, Alpha-1D adrenergic receptor (Homo sapiens, UniProt P25100); assay type: cell membranes, HEK293, Membrane; details: for IC50: hek293; for all read-outs here: in other assays of this panel Not Active means under 50% inhibition at 10 µM
T3 sequence (P25100 whole entry): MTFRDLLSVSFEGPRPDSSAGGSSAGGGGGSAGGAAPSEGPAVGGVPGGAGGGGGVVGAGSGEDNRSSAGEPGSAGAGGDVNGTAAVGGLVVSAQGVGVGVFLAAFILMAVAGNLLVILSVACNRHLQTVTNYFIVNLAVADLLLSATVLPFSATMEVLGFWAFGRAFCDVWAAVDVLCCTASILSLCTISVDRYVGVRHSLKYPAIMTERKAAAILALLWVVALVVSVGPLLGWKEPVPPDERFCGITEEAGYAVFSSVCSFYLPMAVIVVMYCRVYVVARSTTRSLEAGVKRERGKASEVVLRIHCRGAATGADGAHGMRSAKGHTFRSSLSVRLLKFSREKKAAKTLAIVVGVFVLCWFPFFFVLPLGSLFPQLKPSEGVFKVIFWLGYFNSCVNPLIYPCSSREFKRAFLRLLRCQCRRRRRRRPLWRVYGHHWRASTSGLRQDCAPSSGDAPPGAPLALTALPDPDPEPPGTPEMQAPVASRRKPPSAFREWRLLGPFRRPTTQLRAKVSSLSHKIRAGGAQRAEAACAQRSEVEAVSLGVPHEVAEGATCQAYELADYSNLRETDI

Leukotriene C4 synthase = target: T4, Leukotriene C4 synthase (Cavia porcellus, UniProt A6XA80); assay type: tissue-based, Lung
T4 sequence (A6XA80 whole entry): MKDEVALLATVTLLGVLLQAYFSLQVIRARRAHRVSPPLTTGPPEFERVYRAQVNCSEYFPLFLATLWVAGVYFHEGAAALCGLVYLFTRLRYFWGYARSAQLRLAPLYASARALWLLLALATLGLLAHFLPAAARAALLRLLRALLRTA

[5] = DRUGMATRIX: Sodium/nucleoside co-transporter radioligand binding (ligand: nitrobenzylthioinosine); assay type: cell membranes, Cavia porcellus, Dunkin-Hartley, Cerebral cortex, Membrane; details: Not Active = under 50% inhibition at 10 µM

Sequence of Substance-P receptor (P25103 whole entry): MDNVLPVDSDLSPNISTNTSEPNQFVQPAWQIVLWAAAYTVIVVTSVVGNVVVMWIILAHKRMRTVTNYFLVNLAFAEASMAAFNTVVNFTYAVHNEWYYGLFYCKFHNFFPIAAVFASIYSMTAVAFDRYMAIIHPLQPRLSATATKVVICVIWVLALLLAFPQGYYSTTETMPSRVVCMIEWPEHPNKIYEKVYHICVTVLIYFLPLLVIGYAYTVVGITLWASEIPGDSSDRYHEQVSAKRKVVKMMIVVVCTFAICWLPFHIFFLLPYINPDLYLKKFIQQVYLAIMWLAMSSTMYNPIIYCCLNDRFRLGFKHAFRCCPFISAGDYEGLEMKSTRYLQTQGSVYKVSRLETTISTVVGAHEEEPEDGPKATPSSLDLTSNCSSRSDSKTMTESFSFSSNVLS

Row | SMILES | IC50 (Calcitonin receptor) | IC50 (Substance-P receptor) | IC50 [1] | Ki [1] | IC50 [2] | Ki [2] | IC50 [3] | IC50 [4] | IC50 (Leukotriene C4 synthase) | IC50 [5] | Ki [5] | pKi [4] | pIC50 ([4]; read-out: IC50)
1 | O=C(c1ccccc1C(F)(F)F)N1CCC(Cc2ccccc2)CC1 | Not Active | Not Active | Not Active | Not Active | Not Active | Not Active | Not Active | Not Active | Not Active | Not Active | Not Active |  | 
2 | O=C/C=C/c1ccccc1 | Not Active | Not Active | Not Active | Not Active | Not Active | Not Active | Not Active | Not Active | Not Active | Not Active | Not Active |  | 
3 | Nc1ccc2c3c(cccc13)C(=O)NC2=O | Not Active | Not Active | Not Active | Not Active | Not Active | Not Active | Not Active | Not Active | Not Active | Not Active | Not Active |  | 
4 | COc1ccc(C(=O)N2CCCC2=O)cc1 | Not Active | Not Active | Not Active | Not Active | Not Active | Not Active | Not Active | Not Active | Not Active | Not Active | Not Active |  | 
5 | O=c1cnn([C@@H]2O[C@H](CO)[C@@H](O)[C@H]2O)c(=O)[nH]1 [6-AZAURIDINE] | Not Active | Not Active | Not Active | Not Active | Not Active | Not Active | Not Active | Not Active | Not Active | Not Active | Not Active |  | 
6 | CC[C@H](C)[C@H]1O[C@]2(C=C[C@@H]1C)C[C@@H]1C[C@@H](C/C=C(\C)[C@@H](O[C@H]3C[C@H](OC)[C@@H](O[C@H]4C[C@H](OC)[C@@H](O)[C@H](C)O4)[C@H](C)O3)[C@@H](C)/C=C/C=C3\CO[C@@H]4[C@H](O)C(C)=C[C@@H](C(=O)O1)[C@]34O)O2.CO[C@H]1C[C@H](O[C@H]2[C@H](C)O[C@@H](O[C@@H]3/C(C)=C/C[C@@H]4C[C@@H](C[C@]5(C=C[C@H](C)[C@@H](C(C)C)O5)O4)OC(=O)[C@@H]4C=C(C)[C@@H](O)[C@H]5OC/C(=C\C=C\[C@@H]3C)[C@]54O)C[C@@H]2OC)O[C@@H](C)[C@@H]1O [ABAMECTIN] | Not Active | Not Active | Not Active | Not Active | Not Active | Not Active | Not Active | Not Active | Not Active | Not Active | Not Active |  | 
7 | NCCCC(O)(P(=O)(O)O)P(=O)(O)O [ALENDRONIC ACID] | Not Active | Not Active | Not Active | Not Active | Not Active | Not Active | Not Active | Not Active | Not Active | Not Active | Not Active |  | 
8 | Cc1nnc2n1-c1ccc(Cl)cc1C(c1ccccc1)=NC2 [ALPRAZOLAM] | Not Active | Not Active | Not Active | Not Active | Not Active | Not Active | Not Active | Not Active | Not Active | Not Active | Not Active |  | 
9 | Cn1c(=O)c2[nH]cnc2n(C)c1=O.Cn1c(=O)c2[nH]cnc2n(C)c1=O.NCCN [AMINOPHYLLINE] | Not Active | Not Active | Not Active | Not Active | Not Active | Not Active | Not Active | Not Active | Not Active | Not Active | Not Active |  | 
10 | CCC1(CCC(C)C)C(=O)NC(=O)NC1=O [AMOBARBITAL] | Not Active | Not Active | Not Active | Not Active | Not Active | Not Active | Not Active | Not Active | Not Active | Not Active | Not Active |  | 
11 | CC1(C)S[C@@H]2[C@H](NC(=O)[C@H](N)c3ccccc3)C(=O)N2[C@H]1C(=O)O [AMPICILLIN] | Not Active | Not Active | Not Active | Not Active | Not Active | Not Active | Not Active | Not Active | Not Active | Not Active | Not Active |  | 
12 | COc1ccc(C2C(=O)c3ccccc3C2=O)cc1 [ANISINDIONE] | Not Active | Not Active | Not Active | Not Active | Not Active | Not Active | Not Active | Not Active | Not Active | Not Active | Not Active |  | 
13 | O=C1O[C@H]([C@@H](O)CO)C(O)=C1O [ASCORBIC ACID] | Not Active | Not Active | Not Active | Not Active | Not Active | Not Active | Not Active | Not Active | Not Active | Not Active | Not Active |  | 
14 | CN1[C@@H]2CC[C@H]1C[C@@H](OC(=O)C(CO)c1ccccc1)C2 (stereo not given in full) [ATROPINE] | Not Active | Not Active | Not Active | Not Active | Not Active | Not Active | Not Active |  | Not Active | Not Active | Not Active | 6.18 | 5.87
15 | COc1cc2nc(N3CCN(C(=O)c4ccco4)CC3)nc(N)c2cc1OC [PRAZOSIN] | Not Active | Not Active | Not Active | Not Active | Not Active | Not Active | Not Active |  | Not Active | Not Active | Not Active |  | 

Source: ChEMBL document CHEMBL1909046, “DrugMatrix in vitro pharmacology data”
